Laboratory results as given in BindingDB's records for patent US20250145606 (Arcus Biosciences, 2025).

Experiments:
Assay in all cases: Inhibition of c-Kit, PDGFRα, PDGFRβ, CSFIR and FLT3 Kinase Activity Assay
[1] = molecular target: Macrophage colony-stimulating factor 1 receptor (Homo sapiens, UniProt P07333)
Procedure: (§1) On the day of the assay, compounds were solubilized in DMSO and dispensed into a 384-well white Opti-plate (PerkinElmer, catalog #6007290) to generate a 22 point 1:2 titration. Enzyme solution was prepared for each of the tyrosine kinases in 50 mM HEPES, pH 7.4, 5 mM MgCl2 for c-Kit or 10 mM MgCl2 for FLT3, CSFIR, PDGFRa and PDGFRβ, 2 mM MnCl2, 0.01% Brij-35 and 0.01% BSA. Working enzyme concentrations were prepared for c-Kit at 2 nM (2×), PDGFRa and PDGFR at 10 nM (2×), CSFIR at 2 nM (2×) and FLT3 at 0.4 nM (2×). Five microliters of enzyme dilution of each tyrosine kinase were added to their respective 384-well white Opti-plate pre-dispensed with compound and allowed to incubate for 1 h at rt. Utilizing the same enzyme buffer recipe, 2x substrate mixes were prepared for each enzyme as follows: For c-Kit, 1.6 μM (2×) TK substrate and 16 μM (2×) ATP (Promega, catalog #V915). For PDGFRα, 3.2 μM TK substrate and 1 μM ATP. For PDGFRβ, 3.2 μM TK substrate and 40 μM ATP. For CSFIR, […] TK substrate and 20 μM ATP. For FLT3, 3.2 μM TK substrate and 100 μM ATP. Reactions were initiated by addition of 5 μL of the respective 2x substrate mix to each well of the plates containing the respective tyrosine kinase enzymes and were allowed to proceed for 120 minutes at rt, except for FLT3, the reaction time is 45 min. Following the reaction, 10 μL of detection mix consisting of 0.2 μM (2×) of Streptavidin-XL665 and 2 μM (2×) of TK-Antibody-Cryptate prepared in detection buffer (Part 62SDBRDF of KinEASE assay kit) was added and then allowed to incubate for 60 min. The TR-FRET signal was quantified by measuring the ratio of emission at 665 nm to 620 nm after excitation at 320 nm by reading on a PerkinElmer Envision multimode reader. Compound potencies (IC50 values) were determined using a standard 4-parameter non-linear regression fit.

[2] = molecular target: Platelet-derived growth factor receptor alpha (Homo sapiens, UniProt P16234)
Sequence of Platelet-derived growth factor receptor alpha (P16234 whole entry): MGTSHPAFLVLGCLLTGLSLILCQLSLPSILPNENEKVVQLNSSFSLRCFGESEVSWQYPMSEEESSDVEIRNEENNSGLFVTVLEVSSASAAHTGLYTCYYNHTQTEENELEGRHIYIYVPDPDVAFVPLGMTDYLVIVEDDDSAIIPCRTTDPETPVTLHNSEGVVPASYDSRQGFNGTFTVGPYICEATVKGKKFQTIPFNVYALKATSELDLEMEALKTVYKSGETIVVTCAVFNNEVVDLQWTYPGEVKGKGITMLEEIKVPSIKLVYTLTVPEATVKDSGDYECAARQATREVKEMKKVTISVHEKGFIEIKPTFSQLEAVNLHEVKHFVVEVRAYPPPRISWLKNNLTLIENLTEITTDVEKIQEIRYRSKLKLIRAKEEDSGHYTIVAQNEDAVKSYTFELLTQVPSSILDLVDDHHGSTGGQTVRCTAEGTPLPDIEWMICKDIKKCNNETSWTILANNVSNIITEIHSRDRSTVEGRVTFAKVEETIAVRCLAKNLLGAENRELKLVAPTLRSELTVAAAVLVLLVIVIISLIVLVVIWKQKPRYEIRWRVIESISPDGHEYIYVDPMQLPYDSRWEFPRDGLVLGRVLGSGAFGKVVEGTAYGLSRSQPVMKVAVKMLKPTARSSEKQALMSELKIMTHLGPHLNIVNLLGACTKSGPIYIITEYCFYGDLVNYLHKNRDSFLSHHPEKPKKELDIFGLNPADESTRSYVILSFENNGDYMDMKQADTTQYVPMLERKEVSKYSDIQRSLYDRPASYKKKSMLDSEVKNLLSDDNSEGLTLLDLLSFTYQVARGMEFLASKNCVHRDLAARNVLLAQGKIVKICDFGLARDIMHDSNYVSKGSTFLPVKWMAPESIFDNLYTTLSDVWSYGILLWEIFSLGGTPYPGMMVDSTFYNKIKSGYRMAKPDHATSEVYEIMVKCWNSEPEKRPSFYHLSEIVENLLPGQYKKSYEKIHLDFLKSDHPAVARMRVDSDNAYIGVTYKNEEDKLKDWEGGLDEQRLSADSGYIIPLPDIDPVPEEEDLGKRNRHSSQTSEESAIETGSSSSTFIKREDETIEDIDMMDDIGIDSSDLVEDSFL
Procedure: as §1

[3] = molecular target: Platelet-derived growth factor receptor beta (Homo sapiens, UniProt P09619)
Sequence of Platelet-derived growth factor receptor beta (P09619 whole entry): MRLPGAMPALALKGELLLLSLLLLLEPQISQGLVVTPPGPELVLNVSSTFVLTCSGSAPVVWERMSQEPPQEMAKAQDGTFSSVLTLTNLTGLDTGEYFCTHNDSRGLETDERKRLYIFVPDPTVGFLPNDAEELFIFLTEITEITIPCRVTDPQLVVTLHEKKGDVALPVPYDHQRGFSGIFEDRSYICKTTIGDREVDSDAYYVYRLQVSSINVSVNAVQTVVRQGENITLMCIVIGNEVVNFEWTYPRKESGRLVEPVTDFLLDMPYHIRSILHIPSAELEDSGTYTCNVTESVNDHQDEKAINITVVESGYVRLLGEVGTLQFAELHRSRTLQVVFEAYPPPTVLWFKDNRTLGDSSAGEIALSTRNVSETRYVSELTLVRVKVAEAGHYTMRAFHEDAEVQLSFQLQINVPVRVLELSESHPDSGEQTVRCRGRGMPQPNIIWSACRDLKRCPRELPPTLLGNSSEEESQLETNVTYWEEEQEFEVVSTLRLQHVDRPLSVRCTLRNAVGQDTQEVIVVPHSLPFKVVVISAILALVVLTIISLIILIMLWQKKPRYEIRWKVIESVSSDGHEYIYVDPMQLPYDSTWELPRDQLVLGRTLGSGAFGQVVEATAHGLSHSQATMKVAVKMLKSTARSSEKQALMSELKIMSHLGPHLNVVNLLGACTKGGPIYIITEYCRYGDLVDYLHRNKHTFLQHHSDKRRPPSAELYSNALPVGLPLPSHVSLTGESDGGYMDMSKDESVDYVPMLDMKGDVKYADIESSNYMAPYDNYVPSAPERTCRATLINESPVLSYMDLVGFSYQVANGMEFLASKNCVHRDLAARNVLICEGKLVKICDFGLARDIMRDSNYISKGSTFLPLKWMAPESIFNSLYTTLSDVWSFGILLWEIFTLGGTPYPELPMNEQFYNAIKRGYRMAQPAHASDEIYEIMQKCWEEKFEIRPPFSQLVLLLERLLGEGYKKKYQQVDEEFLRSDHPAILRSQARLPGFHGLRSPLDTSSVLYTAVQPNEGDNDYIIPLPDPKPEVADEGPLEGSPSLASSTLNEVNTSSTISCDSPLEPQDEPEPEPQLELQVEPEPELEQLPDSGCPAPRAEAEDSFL
Procedure: as §1

[4] = molecular target: Mast/stem cell growth factor receptor Kit (Homo sapiens, UniProt P10721)
Sequence of Mast/stem cell growth factor receptor Kit (P10721 whole entry): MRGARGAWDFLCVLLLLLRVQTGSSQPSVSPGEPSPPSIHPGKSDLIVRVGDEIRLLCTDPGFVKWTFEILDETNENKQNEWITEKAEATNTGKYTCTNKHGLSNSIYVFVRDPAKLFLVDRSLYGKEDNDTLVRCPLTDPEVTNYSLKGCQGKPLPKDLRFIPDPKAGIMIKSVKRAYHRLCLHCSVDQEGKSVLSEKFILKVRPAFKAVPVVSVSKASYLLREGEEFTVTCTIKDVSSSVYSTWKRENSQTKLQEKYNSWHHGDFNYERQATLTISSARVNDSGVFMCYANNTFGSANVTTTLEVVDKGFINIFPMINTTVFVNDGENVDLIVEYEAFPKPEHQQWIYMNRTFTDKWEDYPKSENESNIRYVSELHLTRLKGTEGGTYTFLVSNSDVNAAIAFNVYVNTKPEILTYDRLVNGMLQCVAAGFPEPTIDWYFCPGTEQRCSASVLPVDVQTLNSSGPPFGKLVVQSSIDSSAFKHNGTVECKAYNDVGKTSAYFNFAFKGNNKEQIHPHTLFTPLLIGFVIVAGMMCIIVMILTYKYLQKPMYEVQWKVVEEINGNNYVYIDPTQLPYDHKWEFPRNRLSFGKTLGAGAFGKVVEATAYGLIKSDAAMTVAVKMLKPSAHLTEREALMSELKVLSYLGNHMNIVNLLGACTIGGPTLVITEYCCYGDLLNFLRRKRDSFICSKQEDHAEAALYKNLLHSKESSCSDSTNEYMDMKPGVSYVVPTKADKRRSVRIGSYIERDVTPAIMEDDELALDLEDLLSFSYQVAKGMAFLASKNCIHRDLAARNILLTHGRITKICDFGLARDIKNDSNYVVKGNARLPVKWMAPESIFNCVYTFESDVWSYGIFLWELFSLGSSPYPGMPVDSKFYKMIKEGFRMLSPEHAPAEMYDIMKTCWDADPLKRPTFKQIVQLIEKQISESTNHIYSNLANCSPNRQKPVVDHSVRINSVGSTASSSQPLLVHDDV
Procedure: as §1

Sequence of Macrophage colony-stimulating factor 1 receptor (P07333 whole entry): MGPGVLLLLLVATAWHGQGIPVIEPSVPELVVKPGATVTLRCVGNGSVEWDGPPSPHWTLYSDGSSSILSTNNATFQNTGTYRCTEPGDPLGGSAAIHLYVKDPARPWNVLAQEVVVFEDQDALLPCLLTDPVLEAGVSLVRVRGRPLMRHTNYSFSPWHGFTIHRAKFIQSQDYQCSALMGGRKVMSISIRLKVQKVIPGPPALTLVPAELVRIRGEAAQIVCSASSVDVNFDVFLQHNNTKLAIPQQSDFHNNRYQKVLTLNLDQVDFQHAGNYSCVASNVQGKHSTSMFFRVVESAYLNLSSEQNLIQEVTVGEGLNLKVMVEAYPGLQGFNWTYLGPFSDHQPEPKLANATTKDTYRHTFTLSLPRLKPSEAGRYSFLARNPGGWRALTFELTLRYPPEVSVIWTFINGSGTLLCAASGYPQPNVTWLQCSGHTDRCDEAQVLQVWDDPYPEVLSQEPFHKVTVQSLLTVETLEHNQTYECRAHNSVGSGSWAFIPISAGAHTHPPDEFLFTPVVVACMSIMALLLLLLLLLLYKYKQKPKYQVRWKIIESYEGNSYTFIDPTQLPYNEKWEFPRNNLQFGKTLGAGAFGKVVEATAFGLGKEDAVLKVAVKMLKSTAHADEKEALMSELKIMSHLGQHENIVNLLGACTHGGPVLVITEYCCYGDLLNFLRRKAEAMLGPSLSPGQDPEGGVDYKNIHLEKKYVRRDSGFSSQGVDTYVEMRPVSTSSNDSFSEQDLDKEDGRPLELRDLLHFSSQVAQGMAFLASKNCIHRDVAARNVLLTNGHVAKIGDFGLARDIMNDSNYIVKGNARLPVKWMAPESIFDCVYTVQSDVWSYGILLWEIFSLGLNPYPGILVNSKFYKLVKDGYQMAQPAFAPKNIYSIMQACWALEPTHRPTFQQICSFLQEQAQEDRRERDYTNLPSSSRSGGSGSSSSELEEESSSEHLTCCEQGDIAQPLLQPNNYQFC

IC50 [1] | IC50 [2] | IC50 [3] | IC50 [4] | SMILES
> 1000 nM | > 1000 nM | > 1000 nM | – | Cc1ncc(C(=O)Nc2cc(C(=O)NCc3cccnc3)c(F)cc2C)s1 [US20250145606, Example 12]
> 1000 nM | > 1000 nM | > 1000 nM | < 100 nM | Cc1cc(F)c(C(=O)Nc2cn[nH]c2)cc1NC(=O)c1cnc(N)s1 [US20250145606, Example 157]
